Measured values published in patent US12534497B2, “TEIPP peptide variant and use as a medicament” (Academisch Ziekenhuis Leiden (h.o.d.n. LUMC), priority 2019, dated 2026).
No end group written: not given here.

What was measured:
[1] = tested on: LRPAP1-specific T cell clone
HLA-A*0201 = HLA-A*0201 (Homo sapiens, UniProt P04439, D140Y/D185E/D98H/E176V/E277Q/G131W/G231S/I119V/I121R/I166T/I218V/L300P/L318F/N151K/N90K/P208A/P217A/Q86G/Q94H/R138H/R169H/T345S); settings: previous studies; cited from earlier work
[2] = tested on: monocyte-derived dendritic cells; experiment: Cross-presentation of long peptides by monocyte-derived dendritic cells, read out by LRPAP1-specific CD8 T cell clone cytokine release; format: cell-based, human; settings: positive control on moDC
Procedure: (A) Monocyte-derived dendritic cells were incubated with indicated long peptides comprising the LRPAP1 epitope and co-cultured with a TEIPP-specific CD8 T cell clone 1A8. Non-natural flanking amino acids at the amino-terminus, or natural flanking amino acids at the carboxy-terminus or natural flanking amino acids at both ends were used to elongate the minimal epitope. GM-CSF secretion by the TEIPP-specific T cell clone was used to determine cross-presentation efficiency and pulsing with short peptide ([…]) was used as positive control. (B) Predicted HLA-A2*01 binding affinity scores of LRPAP1 peptides with substituted amino acids at the C-terminal p9 (MHCnet 4.0 algorithm). Binding affinity score was calculated on basis of the IC50 values and ranking percentage (see Table 2 for exact values). (C) Predicted proteasome cleavage activity for four different LRPAP1 peptides using NetCHop 3.1 algorithm. […] (D) Functional T cell avidity was measured as GM-CSF secretion by TEIPP-specific T cell clone stimulated with short peptide—pulsed EBV-JY cells in serial dilutions of the peptides. […] (E) EC50 values were calculated from values obtained in D (wherein EC values represent the dose of peptide resulting in half of the maximal response to that particular peptide variant). […] Cross-presentation of the indicated long peptides was determined by T cell clone. […]

TAP KO melanoma cells = experiment: Recognition of TAP-deficient versus wild-type melanoma cells by peptide-induced T cell cultures; format: cell-based, human
Description: (A) Schematic overview of the tetramer pull-down approach and subsequent stimulation with short peptides. (B) Specificity of polyclonal […] peptide isolated T cells (upper panel) or […] peptide isolated T cells (bottom panel) as measured by staining of the T cells with two fluorescently labeled tetramers comprising the short natural sequence (horizontal axis) or the V-substituted peptide (vertical axis) by flow cytometry. (C) Geomeans for double tetramer positive cells on […] or […] peptide isolated T cells. (D) IFNy and GM-CSF production of polyclonal T cell bulks when stimulated with peptide pulsed EBV-JY cells as measured by ELISA. Means and SD are plotted of one out of three independent experiments. (E) Reactivity of these polyclonal T cell bulks when stimulated with wild-type and TAP knock out 518A2 melanoma cells (rendered TAP-deficient by CRISPR/CAS9 technology) or no tumor cells (control) as measured by indicated cytokine production using ELISA.
18-mer (also referred to as 18-meer) is SEQ ID NO: 4; 21-mer (also referred to as 21-meer) SEQ ID NO: 5; 24-mer (also referred to as 24-meer) is SEQ ID NO:6; and 27-mer (also referred to as 27-meer) is SEQ ID NO: 7. […]
To test the functionality of these T cell bulks, cytokine responses were measured towards both short peptides pulsed on immortalized HLA-A*0201 positive B cells (FIG. 2d). […]

[3] = tested on: TCR-transduced CD8 T cells; experiment: Reactivity of TCR-transduced T cells to peptide pulsed EBV-JY cells (cytokine ELISA); format: cell-based, human; settings: V-variant compared with S-variant peptide
Description: (B) TCRαβ gene transduction into T cells from a healthy donor. The introduced genes contain the murine TCR-αβ domain which enhances correct pairing of transgenic alpha and beta chains. Expression of this domain is confirmed in TCR-transduced T cells (on the horizontal axis). (C) Staining of TCRαβ transduced CD8 T cells with fluorescently labeled tetramers comprising the short natural peptide sequence (left panel) or the V-substituted peptide (right panel). (D) Functional reactivity of tetramer-enriched TCR-transduced T cells to peptide pulsed EBV-JY cells as measured by indicated cytokine production using ELISA. Means and SD are depicted from one out of three experiments with similar outcome. […] TCR-transduced T cells were stimulated with either the wild type version of two different melanoma cell lines, or their TAP knock out (TAP KO) variants generated by CRISPR/CAS9 technology. […] T cells only served as control.
Platinum-Amphotropic retrovirus production (Plat-A) retroviral packing cells (Cell Biolabs) were used for retrovirus production. Plat-A cells were seeded in 6-well plates and incubated overnight until fully attached. Next, the cells were transfected with 2 μg pMP71_1A8 TCR vector using lipofectamine 2000. Retrovirus supernatant was collected on 24 h and 48 h after transfection, spun down to remove cells, and stored in −80° C. […]

LRPAP1-specific T cells = experiment: In vitro vaccination: SLP-loaded moDC co-cultured with tetramer-enriched autologous T cells, tetramer analysis; format: cell-based, human; settings: 2 healthy blood donors stimulated 2-3 times with length variants
Procedure: In short, CD14 monocytes isolated from PBMC of healthy donors were differentiated into dendritic cells by culturing with GM-CSF and IL-4 for 6 days. On day 7, moDCs were plated in 96-well and incubated with 20 uM of V-SLP for 20 h. During the last 18 hours the DCs were matured with […] LPS. On day 8, the moDCs were washed and co-cultured with PBMC enriched for LRPAP1-specific T cells by […]-tetramers. (A) Schematic overview of the in vitro vaccination protocol using two V-variant peptides (C-terminal and N-terminal extended) as synthetic long peptides that require cross-presentation by monocyte-derived dendritic cells for priming of CD8 T cells. […] Control co-cultures were incubated without a peptide. (C) LRPAP1-specific T cell clones were generated via single cell FACS sort and their specificity to the wild type (S-variant) and the V-variant peptide was assessed using two fluorescently labeled tetramers comprising the short wild type sequence (horizontal axis) or the V-substituted peptide (vertical axis) by flow cytometry. Clone 1A8 was generated and described in a previous study^7, and used here as a reference clone. (D) LRPAP1-specific T cells clones were examined for recognition of TAP-deficient melanoma cell lines and their wild-type counterparts. Clones 2H11, 2B9 and 1A10 are shown. Means and SD are shown from one out of two experiments with similar outcome. Clone 1A8, shown in (E), served as positive control. (E) LRPAP1-specific T cells clones were examined for recognition of TAP-deficient melanoma cell lines and their wild-type counterparts. Clones 4B11, 1C5, and 1A8 are shown. Means and SD are shown from one out of two experiments with similar outcome. Clone 1A8, served as positive control. […]
HLA-A*02:01 positive PBMCs were isolated from buffy-coats from consented donors (Sanquin bloodbank, Amsterdam), using a gradient ficoll layer. […] T cell specificity and reactivity were analyzed by flow cytometry.
Tetramer staining on CD8 T cells was performed by 15 min incubation at 4° C. and washed three times with cold PBS/BSA prior to cell surface staining. […] T cell activation was measured by intracellular IFNγ staining (XMF1.2, Biolegend) using an ICS kit (BioLegend) according to manufactures protocol. moDCs were stained with anti-CD1a (clone HI149, BD), anti-CD14 (clone M5E2, BD), anti-CD80 (clone L307.4, BD), anti-CD83 (clone HB15e, BD), anti-CD86 (clone IT2.2, biolegend), and anti HLA-DR (clone G46-6, BD) antibodies for 30 min at 4° C. and washed three times with cold PBS/BSA. Samples were acquired using a BD LSRFortessa™ flow cytometry system and analyzed using FlowJo software (Tree Star). […]

EC50 [1] | Sequence | expansion of HLA-A*02:01 FLGPWPAAS-specific CD8+ T cells (LRPAP1-specific T cells) | also measured
0.7 µg/mL | FLGPWPAAI | – | –
3.7 µg/mL | FLGPWPAAL [FLGPWPAAL] | – | –
1.9 µg/mL | FLGPWPAAS | – | binding affinity onto HLA-A*0201 (HLA-A*0201): moderate; T cell stimulation by exogenous pulsing of short peptide [2]: did stimulate the T cells
0.1 µg/mL | FLGPWPAAV | – | fold better T cell activation ([1]; V versus S at the C-terminus): 19 fold; cytokine response compared to the S-peptide ([1]; short peptide variants exogenously pulsed, titrated concentrations): more potent; recognition of TAP-negative versus wild type melanoma by peptide induced polyclonal T cell cultures (TAP KO melanoma cells; 518A2 melanoma cell line): preferred recognition of the TAP-negative tumor line; cytokine responses of TCR-transduced T cells [3]: stronger cytokine responses
– | LPALLLLLLFLGPWPAAV [18-mer] | able to stimulate the expansion | –
– | LRGLPALLLLLLFLGPWPAAV [21-mer] | able to stimulate the expansion | –
– | RRVRSFLRGLPALLLLLLFLGPWPAAV [27-mer] | able to stimulate the expansion | –
– | RSFLRGLPALLLLLLFLGPWPAAV [24-mer] | able to stimulate the expansion | recognition of TAP KO versus TAP proficient melanoma cell lines by long peptide stimulated T cell cultures (TAP KO melanoma cells; co-cultures with TAP proficient and TAP KO melanoma cell lines): preferentially recognize the TAP KO melanoma cells
